Measured values: patent publication US20250179121A1, “CYCLOSPORINE COMPOSITIONS AND METHODS OF USE” (Bacainn Biotherapeutics, Ltd., priority 2018, published 2025)
pIC50: −log10 of the molar value. Values joined by “and” are separate entries in the source; they are usually repeats but may differ in a detail not shown here. Equal entries are not always repeated.

Assays:
[1] = Rat PK, plasma concentrations after oral dosing; format: in vivo, Sprague-Dawley rats; settings: for plasma concentration of BT070 (breakdown product of BT051): individual animals A-E
Description: [Worded in the source for another target; this target is reported under the same test.] Blood samples were collected at the indicated time points and processed to plasma. Plasma concentrations of BT090 were assayed by LC-MS/MS. Feces were collected over t=0 to 4 h, 4-8 h, and 8-24 h, homogenized in buffer and assayed for BT090 concentrations by LC-MS/MS. Total feces weight collected for each time interval was recorded. BT090 was formulated in 1% NMP, 0.3% Tween-80 in 0.5% methylcellulose.

[2] = Amount excreted in feces after oral dosing in rats; format: in vivo, Sprague-Dawley rats; settings: rat; for Conc. in feces: BT070 10 mg/kg oral, individual animals A-C, corrected for the 1:9 dilution factor
neutrophil migration = test: PMN transmigration assay (T84 monolayer infected with Salmonella typhimurium, MPO readout); format: cell-based, human
Description: PMN transmigration assay. T84 colorectal cancer cells were grown to confluence on the bottom side of 12 well polycarbonate membrane inserts of a 24 well Transwell® plate. The confluent growth of these epithelial cells results in physiologically-relevant apical (luminal) and basolateral surfaces in the transwells. […] The monolayer was then infected on the apical surface with Salmonella typhimurium for 2 hours to induce hepoxilin A3 (HXA3) efflux through the MRP2 membrane protein and into the apical chamber. […] Freshly isolated and prepared human neutrophils were then added to the basolateral side and allowed to transmigrate through the monolayer for 2 hours. The number of neutrophils migrated to the apical chamber (due to the HXA3 gradient) was then assayed by determination of myeloperoxidase activity (a neutrophil biomarker). Inhibition of transmigration is indicated by lower MPO activity in the apical chamber.

[3] = BT070 10 mg/kg oral, rat, individual animals A-C, 10 mg/kg

CC[C@@H]1NC(=O)[C@H]([C@H](O)[C@H](C)CCCCCC(=O)O)N(C)C(=O)[C@H](C(C)C)N(C)C(=O)[C@H](CC(C)C)N(C)C(=O)[C@H](CC(C)C)N(C)C(=O)[C@@H](C)NC(=O)[C@H](C)NC(=O)[C@H](CC(C)C)N(C)C(=O)[C@H](C(C)C)NC(=O)[C@H](CC(C)C)N(C)C(=O)CN(C)C1=O [BT070]
plasma concentration, Mean ([1]; BT070 10 mg/kg oral, rat, 0.5 h, mean): 3588.6 ng/mL
plasma concentration, Mean ([1]; BT070 10 mg/kg oral, rat, 1 h, mean): 2301.5 ng/mL
plasma concentration, Mean ([1]; BT070 10 mg/kg oral, rat, 2 h, mean): 1522.8 ng/mL
plasma concentration, Mean ([1]; BT070 10 mg/kg oral, rat, 4 h, mean): 829.6 ng/mL
plasma concentration, Mean ([1]; BT070 10 mg/kg oral, rat, 6 h, mean): 488.3 ng/mL
plasma concentration, Mean ([1]; BT070 10 mg/kg oral, rat, 8 h, mean): 293.9 ng/mL
plasma concentration, Mean ([1]; BT070 10 mg/kg oral, rat, 24 h, mean): 101.2 ng/mL
AUCinf [1, 3]: 17616.8 ng/mL * h and 19158.4* ng/mL * h and 7432.0 ng/mL * h
AUClast [1, 3]: 17560.9 ng·h/mL and 11798.3 ng·h/mL and 7249.5 ng·h/mL
AUCinf, Mean ([1]; BT070 10 mg/kg oral, rat, mean): 14735.7 ng·h/mL
AUClast, Mean ([1]; BT070 10 mg/kg oral, rat, mean): 12202.9 ng·h/mL
plasma concentration of BT070 (breakdown product of BT051) ([1]; after BT051 10 mg/kg oral, rat, 0.5 h): 3.3 ng/mL and NQ (Not quantifiable. No peak or below limit of quantification (LOQ = 2.5 ng/mL)) (4×)
plasma concentration of BT070 (breakdown product of BT051), Mean ([1]; after BT051 10 mg/kg oral, rat, 0.5 h, mean): 3.3 ng/mL
plasma concentration of BT070 (breakdown product of BT051) ([1]; after BT051 10 mg/kg oral, rat, 1 h): NQ (Not quantifiable. No peak or below limit of quantification (LOQ = 2.5 ng/mL))
plasma concentration of BT070 (breakdown product of BT051) ([1]; after BT051 10 mg/kg oral, rat, 2 h): NQ (Not quantifiable. No peak or below limit of quantification (LOQ = 2.5 ng/mL))
plasma concentration of BT070 (breakdown product of BT051) ([1]; after BT051 10 mg/kg oral, rat, 4 h): NQ (Not quantifiable. No peak or below limit of quantification (LOQ = 2.5 ng/mL))
plasma concentration of BT070 (breakdown product of BT051) ([1]; after BT051 10 mg/kg oral, rat, 6 h): NQ (Not quantifiable. No peak or below limit of quantification (LOQ = 2.5 ng/mL))
plasma concentration of BT070 (breakdown product of BT051) ([1]; after BT051 10 mg/kg oral, rat, 8 h): NQ (Not quantifiable. No peak or below limit of quantification (LOQ = 2.5 ng/mL))
plasma concentration of BT070 (breakdown product of BT051) ([1]; after BT051 10 mg/kg oral, rat, 24 h): NQ (Not quantifiable. No peak or below limit of quantification (LOQ = 2.5 ng/mL))
Cmax of BT070 (breakdown product of BT051) ([1]; after BT051 10 mg/kg oral, rat, individual animals): 3.3 ng/mL
Cmax of BT070 (breakdown product of BT051), Mean ([1]; after BT051 10 mg/kg oral, rat, mean): 3.3 ng/mL
detection in the plasma from 15 minutes to 24 hours ([1]; compound dosed orally in rats at 10 mg/kg): present in the plasma in all subject rats
oral bioavailability of the breakdown product of BT051 ([1]; following oral administration of BT051 in rats at 10 mg/kg): not orally bioavailable
Conc. in feces ([2]; 0-4 h): NQ (Not quantifiable. No peak or below limit of quantification (LOQ = 1000 ng/mL))
Conc. in feces ([2]; 4-8 h): NQ (Not quantifiable. No peak or below limit of quantification (LOQ = 1000 ng/mL))
Total amount of BT070 (breakdown product of BT051) excreted in feces ([2]; after BT051 10 mg/kg oral, 0-48 h, individual animals A-D): 36.9 µg and 33.4 µg and 41.4 µg and 38.5 µg
Amount of BT070 (breakdown product of BT051) excreted in feces ([2]; after BT051 10 mg/kg oral, 8-24 h, individual animals A-D): 31.2 µg and 14.3 µg and 10.6 µg and 34.8 µg
Amount of BT070 (breakdown product of BT051) excreted in feces ([2]; after BT051 10 mg/kg oral, 24-48 h, individual animals A-D): 5.7 µg and 19.1 µg and 30.8 µg and 3.7 µg
inhibition of neutrophil migration, dose-response (neutrophil migration; FIG. 1): dose-responsive inhibition
inhibition of neutrophil migration (neutrophil migration; dose of 100 nM): exhibit inhibition of neutrophil migration
pIC50 (neutrophil migration; read-out: compound concentration at which 50% inhibition of neutrophil migration was observed, FIG. 1 dose-response): 7.51
